Assay results taken from PubChem BioAssay AID624491 (Broad Institute, 2012).

What follows are compounds tested on D54 ERlucT glycosylation luciferase reporter, luminescence, 24 h (assay: blockers of NLG process in reporter cells – D54 ERlucT cells, luminescence, cherry-picks, dose response (AID 624491);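 also: signal gain reflects blocked N-linked glycosylation of a luciferase reporter; actives raise luciferase signal so AC26 marks activators of the reporter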).
Compound O=C(Nc1c2ccccc2nc2ccccc12)C(Cl)(Cl)Cl has an AC26 of 3340 nM.
In the case of N#Cc1ccc(-c2cccs2)nc1SCc1cccnc1, the AC26 is reported as 242 nM.
COc1cc(-c2cc3nc(NCCOc4ccccc4)ccn3n2)cc(OC)c1OC gave an AC26 of 2350 nM.
O=C(NC1CCCCC1)c1ccc([N+](=O)[O-])o1 showed an AC26 of 852 nM.
COc1ccc(C2=NOC(C(=O)NCc3cccs3)C2)cc1 (stereo not drawn) gave an AC26 of 1010 nM.
In the case of COc1ccc(Nc2nc(-c3c(C)nc4ncccn34)cs2)cc1, the AC26 is reported as 17.2 nM.
Work on O=c1cc(-c2ccccc2)nc2cc(-c3ccc(F)cc3)[nH]n12 yielded an AC26 of 4270 nM.
With Cc1ccc(S(=O)(=O)N(C)C[C@@H]2Oc3ccc(NC(=O)CCC(F)(F)F)cc3CC(=O)N([C@@H](C)CO)C[C@@H]2C)cc1 the AC26 was 1470 nM.
CCOc1ccc(S(=O)(=O)N2CCN=C2c2ccccc2)cc1 gave an AC26 of 3390 nM.
OC1CCCN(Cc2c3ccccc3cc3ccccc23)C1 (stereo not drawn) gave an AC26 of 8750 nM.
For COc1cccc(OCc2nc3ncc(Br)cc3[nH]2)c1, the AC26 was 1810 nM.
COc1cc(C2CC(=O)Nc3cc(C)c(C)cc32)cc(OC)c1OC (stereo not drawn) gave an AC26 of 8880 nM.
CCN(CC)c1ccc(/C=C2\C(=O)N(c3nnc(C)c(=O)[nH]3)N=C2C)cc1 gave an AC26 of 1420 nM.
With COCCCNC(=O)c1ccc(-c2c(C)noc2C)c2ccoc12 the AC26 was 4060 nM.
For CCOc1ccc2cc(/C=C/C(=O)c3ccco3)c(Cl)nc2c1, the AC26 was 3060 nM.
With COc1ccc2c(c1)OC[C@H]1[C@H]2N2C(=O)c3cc(Br)ccc3NC(=O)[C@@]2(C)[C@H]1c1ccccc1 the AC26 was 976 nM.
c1ccc(-c2cc(NCCN3CCCCC3)c3ccccc3n2)cc1 was tested, and the AC26 was 2910 nM.
Compound CCN(CC)CCOc1ccc2c(c1)C(=NNC(=O)c1ccccn1)c1cc(OCCN(CC)CC)ccc1-2 has an AC26 of 530 nM.
For CN=c1sc(C(=O)Nc2cccc(Cl)c2)cc(=O)n1C, the AC26 was 349 nM.
Work on O=C1NC(=O)N(c2ccccc2)C(=O)/C1=C\C=C\c1ccccc1 yielded an AC26 of 679 nM.
Compound CC(C)c1ccc(NC(=O)CN2C(=O)NC3(CCCCCCC3)C2=O)cc1 has an AC26 of 1210 nM.
Compound COc1ccc(CCn2c(O)c(C=NCc3ccc4c(c3)OCO4)c(=O)[nH]c2=O)cc1OC has an AC26 of 3430 nM.
For COc1cc(C(=O)NC2CCN(C)CC2)ccc1Nc1ncc2c(n1)N(CCc1ccccc1)CCC(=O)N2C, the AC26 was 396 nM.
Cc1ccc2nc(-c3ccncc3)cc(C(=O)Nc3ccncc3)c2c1 showed an AC26 of 3050 nM.
Work on CC(=O)Nc1sc(C)c(C)c1C(=O)OCC(=O)N(CC(C)C)c1c(N)n(Cc2ccccc2)c(=O)[nH]c1=O yielded an AC26 of 4710 nM.
CC1(C(=O)NCCC(F)(F)F)Cc2c(-c3cccc(C(F)(F)F)c3)ccnc2O1 (stereo not drawn) was tested, and the AC26 was 15200 nM.
Compound COc1cc(/C=N/n2cnc3scc(-c4cccs4)c3c2=O)cc(OC)c1OC has an AC26 of 701 nM.
CCOC(=O)C1=C(Cc2ccc(F)cc2)C(=O)c2ccccc2C1=O showed an AC26 of 6390 nM.
With CC(Nc1nc(-c2cccnc2)nc2ccccc12)c1ccccc1 (stereo not drawn) the AC26 was 2830 nM.
Work on O=C(N/N=C/c1ccccn1)c1cc(-c2ccncc2)nc2ccccc12 yielded an AC26 of 499 nM.
For O=[N+]([O-])c1ccc(Sc2cc[n+]([O-])c3ccccc23)c([N+](=O)[O-])c1, the AC26 was 5960 nM.
With COc1ccc(N2CCc3c(C)nc4c(OC)cccc4c32)cc1 the AC26 was 368 nM.
Compound Cc1nc2ncccn2c1-c1csc(Nc2ccc(N(C)C)cc2)n1 has an AC26 of 31.5 nM.
COc1cccc(N2CCN(C(=O)c3ccc(CS(=O)c4ccc(C)cc4)o3)CC2)c1 (stereo not drawn) was tested, and the AC26 was 110 nM.
With COc1cc(F)ccc1-c1csc(C(NC(C)=O)c2ccc(F)c(F)c2)n1 (stereo not drawn) the AC26 was 681 nM.
In the case of Cc1cccc([C@@H]2[C@@H]3C(=O)N(Cc4ccccc4)C(=O)[C@@H]3[C@]3(Cc4ccccc4)C(=O)N(c4cccc(F)c4)C(=O)N23)c1, the AC26 is reported as 11400 nM.
For COc1cccc(OCC(O)CN2CCN(CCN3C(=O)c4cccc5cccc(c45)C3=O)CC2)c1 (stereo not drawn), the AC26 was 4250 nM.
Cn1nc(-c2ccc(Cl)cc2)c2cc(C(=O)NC3CC3)sc21 gave an AC26 of 6320 nM.
With Cn1c(-c2ccccc2)c(/C=N/NC(=O)c2cccnc2)c2ccccc21 the AC26 was 247 nM.
Compound CCc1ccc(N2C(=O)Nc3ccccc3C2(O)C(=O)N2CCN(c3ccccn3)CC2)cc1 (stereo not drawn) has an AC26 of 625 nM.
Compound CN(C)C(=O)c1cccc(-c2cnc3c(NC=O)cc(-c4ccccc4Cl)cn23)c1 has an AC26 of 6820 nM.
Compound Cc1nc2ccccc2c2oc(C(=O)NCCCN3CC(C)CC(C)C3)cc12 (stereo not drawn) has an AC26 of 5380 nM.
For C=CCOc1ccccc1C(=O)/C=C1/C(=O)Nc2ccccc21, the AC26 was 3000 nM.
Cn1c(=O)cc(OCCCC(=O)Nc2ccc3c(c2)OCCO3)c2ccccc21 showed an AC26 of 3060 nM.
Compound Cc1ccc2c(CC(=O)NCc3ccco3)coc2c1C has an AC26 of 7380 nM.
Work on COc1ccc(/C=C/C(=O)c2ccc3c(c2)OCCO3)cc1[N+](=O)[O-] yielded an AC26 of 5050 nM.
In the case of Cn1cc(C(=O)N/N=C/C(Br)=C/c2ccccc2)ccc1=O, the AC26 is reported as 2850 nM.
COc1cc2c(cc1OC)C(c1ccccc1)N(C(=O)c1cccc(S(C)(=O)=O)c1)CC2 (stereo not drawn) showed an AC26 of 193 nM.
CCc1ccc(Oc2coc3cc(OCC(=O)Nc4cc(C)ccc4C)ccc3c2=O)cc1 gave an AC26 of 4860 nM.
COc1ccc2c(c1)OC[C@H]1[C@H]2N2C(=O)c3cc(OC)ccc3NC(=O)[C@@]2(C)[C@H]1c1ccccc1 gave an AC26 of 1360 nM.
For CC(=O)c1cccc(-c2ccnc3c2CC(C(=O)Nc2ccc4c(c2)OCO4)O3)c1 (stereo not drawn), the AC26 was 2430 nM.
N=c1c(C(=O)NCc2ccco2)cc2c(=O)n3ccccc3nc2n1CCc1ccccc1 was tested, and the AC26 was 707 nM.
In the case of CC1CN(C(=O)c2cc(-c3ccncc3)nc3ccccc23)CC(C)O1 (stereo not drawn), the AC26 is reported as 2020 nM.
